Data reported in BindingDB's records for doi:10.1021/jm050142+ (Universite De Montreal At Succursale Centre-Ville, 2005).

Molecular target: Cathepsin D (Homo sapiens, UniProt P07339)
Assay: Enzyme Inhibition Measurements
Conditions: 25 °C

Chain of Cathepsin D (P07339 65-162 limits assumed): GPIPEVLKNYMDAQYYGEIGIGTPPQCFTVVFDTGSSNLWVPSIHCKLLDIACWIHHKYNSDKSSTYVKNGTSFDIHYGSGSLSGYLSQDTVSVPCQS
Chain of Cathepsin D (P07339 169-412 limits assumed): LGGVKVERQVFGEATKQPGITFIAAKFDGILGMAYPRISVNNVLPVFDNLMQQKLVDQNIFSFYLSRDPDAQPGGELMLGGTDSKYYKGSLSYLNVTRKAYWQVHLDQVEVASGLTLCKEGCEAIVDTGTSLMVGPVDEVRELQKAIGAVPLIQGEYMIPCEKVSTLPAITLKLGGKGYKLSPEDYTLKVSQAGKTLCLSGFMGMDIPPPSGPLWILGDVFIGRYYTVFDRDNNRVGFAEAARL

For `CCCCNC(=O)[C@@H](NC(=O)[C@@H]1OCC[C@H]1[C@H](O)[C@H](CC(C)C)NC(=O)[C@H](CCSC)NC(=O)[C@H](CC(C)C)NC(C)=O)C(C)C` [(2S)-N-[(1S)-1-{[(1S,2S)-1-[(2R,3S)-2-{[(1S)-1-(butylcarbamoyl)-2-methylpropyl]carbamoyl}oxolan-3-yl]-1-hydroxy-4-methylpentan-2-yl]carbamoyl}-3-(methylsulfanyl)propyl]-2-acetamido-4-methylpentanamide], the IC50 was 280 nM.
